Values quoted from earlier work as cited in patent US20240226070A1, “URAT1 INHIBITOR, PHARMACEUTICAL COMPOSITIONS AND USES THEREOF” (UR-1 Therapeutics, Inc., priority 2021, published 2024).

Key:
5/6 Nx rats = conditions: for effect on aggravation of CKD by hyperuricemia: 5/6 Nx rats dosed with potassium oxonate (750 mg/kg BW)
OAT1 = target: T1, OAT1 (Homo sapiens, UniProt Q4U2R8); conditions: in vitro
T1 sequence (Q4U2R8 1-563): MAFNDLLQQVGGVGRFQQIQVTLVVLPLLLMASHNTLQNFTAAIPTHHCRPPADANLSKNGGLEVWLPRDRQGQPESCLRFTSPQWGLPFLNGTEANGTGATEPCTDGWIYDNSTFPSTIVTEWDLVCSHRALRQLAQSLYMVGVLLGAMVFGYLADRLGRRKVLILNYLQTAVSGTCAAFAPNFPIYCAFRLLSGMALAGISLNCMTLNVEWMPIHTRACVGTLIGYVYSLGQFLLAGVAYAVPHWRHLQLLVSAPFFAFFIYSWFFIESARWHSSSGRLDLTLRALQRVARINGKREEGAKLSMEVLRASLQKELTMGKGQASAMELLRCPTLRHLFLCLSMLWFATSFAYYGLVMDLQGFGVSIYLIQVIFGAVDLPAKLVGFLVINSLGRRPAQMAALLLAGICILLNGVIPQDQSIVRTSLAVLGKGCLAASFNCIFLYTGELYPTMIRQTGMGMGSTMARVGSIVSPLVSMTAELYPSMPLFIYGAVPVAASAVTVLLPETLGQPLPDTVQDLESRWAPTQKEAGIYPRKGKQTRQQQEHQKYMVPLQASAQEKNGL

[1] = target: T2, ATP-binding cassette subfamily G member 2 (ABCG2) (Homo sapiens, UniProt Q9UNQ0); conditions: in vitro
T2 sequence (Q9UNQ0 1-655): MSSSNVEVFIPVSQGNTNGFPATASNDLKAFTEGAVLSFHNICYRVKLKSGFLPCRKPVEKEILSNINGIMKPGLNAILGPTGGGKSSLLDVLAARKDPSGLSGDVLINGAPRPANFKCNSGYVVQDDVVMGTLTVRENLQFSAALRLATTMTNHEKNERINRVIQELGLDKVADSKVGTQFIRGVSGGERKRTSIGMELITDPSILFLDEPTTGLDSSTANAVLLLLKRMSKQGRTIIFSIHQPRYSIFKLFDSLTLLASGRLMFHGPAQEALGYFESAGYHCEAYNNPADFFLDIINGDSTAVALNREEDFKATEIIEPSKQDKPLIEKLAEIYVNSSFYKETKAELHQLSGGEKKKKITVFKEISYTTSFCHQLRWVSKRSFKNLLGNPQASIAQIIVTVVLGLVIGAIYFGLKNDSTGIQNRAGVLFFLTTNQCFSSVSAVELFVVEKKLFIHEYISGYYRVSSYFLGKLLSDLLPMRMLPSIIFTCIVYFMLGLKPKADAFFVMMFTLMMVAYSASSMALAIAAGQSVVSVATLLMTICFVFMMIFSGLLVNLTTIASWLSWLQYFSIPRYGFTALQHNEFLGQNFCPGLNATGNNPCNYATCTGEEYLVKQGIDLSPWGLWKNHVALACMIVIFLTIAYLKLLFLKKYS

[2] = oral administration, 1.3 mg/kg
OAT3 = target: T3, OAT3 (Homo sapiens, UniProt Q8TCC7); conditions: in vitro
T3 sequence (Q8TCC7 1-542): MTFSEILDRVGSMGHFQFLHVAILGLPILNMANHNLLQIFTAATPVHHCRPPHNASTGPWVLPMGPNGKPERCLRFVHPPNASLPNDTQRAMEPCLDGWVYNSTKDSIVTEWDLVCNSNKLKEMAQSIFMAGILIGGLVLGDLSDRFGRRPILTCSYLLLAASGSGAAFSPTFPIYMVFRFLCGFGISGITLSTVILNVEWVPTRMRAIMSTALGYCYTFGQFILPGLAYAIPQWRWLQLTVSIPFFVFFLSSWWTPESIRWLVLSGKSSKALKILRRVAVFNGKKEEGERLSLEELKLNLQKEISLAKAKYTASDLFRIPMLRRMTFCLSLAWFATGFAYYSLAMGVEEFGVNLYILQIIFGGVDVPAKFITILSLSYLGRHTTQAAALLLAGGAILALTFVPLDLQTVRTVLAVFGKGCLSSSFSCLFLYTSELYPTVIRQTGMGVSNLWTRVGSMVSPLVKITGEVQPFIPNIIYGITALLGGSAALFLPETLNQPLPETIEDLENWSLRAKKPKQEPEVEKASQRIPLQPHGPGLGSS

Row | IC50 (OAT1) [µM] | IC50 [1] [µM] | Cmax [2] [ng/mL] | oral bioavailability [2] [%] | plasma clearance ([2]; Sprague-Dawley rats) [mL/min/kg] | terminal elimination half-life (T1/2) ([2]; Sprague-Dawley rats) [h] | IC50 (OAT3) [µM] | Compound | effect on aggravation of CKD by hyperuricemia (5/6 Nx rats) | nephroprotection (5/6 Nx rats; 5/6 rats that not received oxonic acid)
1 | – | – | – | – | – | – | – | Cc1nc(-c2ccc(OCC(C)C)c(C#N)c2)sc1C(=O)O [Febuxostat, febuxostat] | prevented the aggravation of the disease | significant nephroprotection
2 | 4.08 | 4.16 | 415 | 2.5 | 402.1 | 1.88 | 1.32 | O=C(c1cc(Cl)c(O)c(Cl)c1)N1CS(=O)(=O)c2ccccc21 [Dotinurad, 3-(3,5-dichloro-4-hydroxybenzoyl)-1,1-dioxo-2,3-dihydro-1,3-benzothiazole] | – | –
3 | – | – | – | – | – | – | – | Oc1ncnc2[nH]ncc12 [Allopurinol, allopurinol] | prevented the aggravation of the disease | –
